Assays:
BACE = BACE (Homo sapiens (Human), UniProt P56817); test: In vitro BACE cell-based assay (Aβ40 in conditioned medium, sandwich ELISA)
Cathepsin D (Cat D) = Cathepsin D (Cat D) (Homo sapiens (Human), UniProt P07339); test: In vitro enzymatic Cathepsin D (Cat D) FRET assay; format: biochemical; conditions: read-out: CatD IC50
[1] = molecular target: Beta Secretase enzyme (BACE) (Homo sapiens (Human), UniProt P56817); test: In vitro enzymatic BACE FRET assay; format: biochemical; conditions: read-out: BACE1 Enzyme assay IC50
Beta Secretase enzyme (BACE), sequence (P56817 46-501): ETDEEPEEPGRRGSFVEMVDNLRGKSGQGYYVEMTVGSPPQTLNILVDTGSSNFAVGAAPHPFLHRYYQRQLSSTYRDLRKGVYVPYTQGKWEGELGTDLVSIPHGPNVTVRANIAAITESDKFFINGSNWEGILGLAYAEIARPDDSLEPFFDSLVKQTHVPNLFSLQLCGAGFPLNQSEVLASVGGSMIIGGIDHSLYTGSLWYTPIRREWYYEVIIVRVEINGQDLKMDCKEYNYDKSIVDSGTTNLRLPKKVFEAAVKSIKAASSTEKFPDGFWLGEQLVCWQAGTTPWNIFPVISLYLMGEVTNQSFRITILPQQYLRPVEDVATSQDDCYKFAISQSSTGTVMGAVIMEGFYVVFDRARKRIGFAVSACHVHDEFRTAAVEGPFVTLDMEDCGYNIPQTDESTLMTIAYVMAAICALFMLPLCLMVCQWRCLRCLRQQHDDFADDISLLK

BACE, sequence (P56817 46-501, species assumed): as the sequence (P56817 46-501) above
Cathepsin D (Cat D), sequence (P07339 65-412, species assumed): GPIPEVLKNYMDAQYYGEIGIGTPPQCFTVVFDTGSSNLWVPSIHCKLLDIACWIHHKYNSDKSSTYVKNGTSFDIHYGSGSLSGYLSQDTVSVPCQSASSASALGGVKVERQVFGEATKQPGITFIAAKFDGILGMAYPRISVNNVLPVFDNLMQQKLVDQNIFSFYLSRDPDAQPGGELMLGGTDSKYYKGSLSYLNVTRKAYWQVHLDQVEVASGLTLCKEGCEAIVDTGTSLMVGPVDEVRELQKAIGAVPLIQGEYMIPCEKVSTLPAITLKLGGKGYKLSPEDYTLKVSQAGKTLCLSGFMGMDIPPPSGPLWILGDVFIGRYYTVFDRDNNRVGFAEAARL

IC50 (BACE) [µM]	IC50 (Cathepsin D (Cat D)) [µM]	IC50 [1] [nM]	Structure (SMILES)
0.009	> 400	81	COc1cc(C#N)cnc1C(=O)Nc1ccc(Cl)c([C@@]2(CF)N=C(N)O[C@@H]3C[C@@H]32)c1 [Example 397, N-(3-((1R,5S,6R)-3-amino-5-(fluoromethyl)-2-oxa-4-azabicyclo[4.1.0]hept-3-en-5-yl)-4-chlorophenyl)-5-cyano-3-methoxypicolinamide]
0.0123	690	33.5	Cc1cc(NC(=O)c2ncc(C#N)cc2F)cc([C@@]2(C(F)F)N=C(N)O[C@@H]3C[C@@H]32)c1F [Example 398, N-(3-((1R,5S,6R)-3-amino-5-(difluoromethyl)-2-oxa-4-azabicyclo[4.1.0]hept-3-en-5-yl)-4-fluoro-5-methylphenyl)-5-cyano-3-fluoropicolinamide]
0.861	8910	75.9	NC1=N[C@@](c2cc(Nc3nccc4cc(C#CC5CC5)cnc34)ccc2F)(C(F)F)[C@H]2C[C@H]2O1 [Example 406, (1R,5S,6R)-5-(5-((3-(cyclopropylethynyl)-1,7-naphthyridin-8-yl)amino)-2-fluorophenyl)-5-(difluoromethyl)-2-oxa-4-azabicyclo[4.1.0]hept-3-en-3-amine]
1.58	347	46.3	NC1=N[C@@](c2cc(Nc3ncc(F)c4cc(C#CC5CC5)cnc34)ccc2F)(C(F)F)[C@H]2C[C@H]2O1 [Example 408, (1R,5S,6R)-5-(5-((3-(cyclopropylethynyl)-5-fluoro-1,7-naphthyridin-8-yl)amino)-2-fluorophenyl)-5-(difluoromethyl)-2-oxa-4-azabicyclo[4.1.0]hept-3-en-3-amine]
0.514	748	327	CC1(C#Cc2ccc(C(=O)Nc3ccc(F)c([C@@]4(C(F)F)N=C(N)O[C@@H]5C[C@@H]54)c3)nc2)COC1 [Example 409, N-(3-((1R,5S,6R)-3-amino-5-(difluoromethyl)-2-oxa-4-azabicyclo[4.1.0]hept-3-en-5-yl)-4-fluorophenyl)-5-((3-methyloxetan-3-yl)ethynyl)picolinamide]
0.146	924	48	C=CCOc1cnc(C(=O)Nc2ccc(F)c([C@@]3(C(F)F)N=C(N)O[C@@H]4C[C@@H]43)c2)cn1 [Example 414, 5-(allyloxy)-N-(3-((1R,5S,6R)-3-amino-5-(difluoromethyl)-2-oxa-4-azabicyclo[4.1.0]hept-3-en-5-yl)-4-fluorophenyl)pyrazine-2-carboxamide]
0.916	891	26.1	NC1=N[C@@](c2cc(NC(=O)c3cnc(OCC4CCCC4)cn3)ccc2F)(C(F)F)[C@H]2C[C@H]2O1 [Example 418, N-(3-((1R,5S,6R)-3-amino-5-(difluoromethyl)-2-oxa-4-azabicyclo[4.1.0]hept-3-en-5-yl)-4-fluorophenyl)-5-(cyclopentylmethoxy)pyrazine-2-carboxamide]
> 15.6	> 400	> 40000	COC[C@H](C)NC(=O)c1ccc(F)c([C@]2(C(F)F)N=C(N)O[C@H]3C[C@H]32)c1 [Example 427, 3-((1S,5R,6S)-3-Amino-5-(difluoromethyl)-2-oxa-4-azabicyclo[4.1.0]hept-3-en-5-yl)-4-fluoro-N—((S)-1-methoxypropan-2-yl)benzamide]
3.36	72.9	1050	CC#Cc1cncc(-c2ccc(F)c([C@@]3(C(F)F)N=C(N)O[C@@H]4C[C@@H]43)c2)c1 [Example 429, (1R,5S,6R)-5-(difluoromethyl)-5-(2-fluoro-5-(5-(prop-1-yn-1-yl)pyridin-3-yl)phenyl)-2-oxa-4-azabicyclo[4.1.0]hept-3-en-3-amine]
> 15.6	1020	> 40000	CC#Cc1cncc(-c2ccc(F)c([C@]3(C(F)F)N=C(N)O[C@H]4C[C@H]43)c2)c1 [Example 430]
0.561	386	1210	CC#Cc1cnn(-c2ccc(F)c([C@@]3(C(F)F)N=C(N)O[C@@H]4C[C@@H]43)c2)c1 [Example 434, (1R,5S,6R)-5-(difluoromethyl)-5-(2-fluoro-5-(4-(prop-1-yn-1-yl)-1H pyrazol-1-yl)phenyl)-2-oxa-4-azabicyclo[4.1.0]hept-3-en-3-amine]
0.126	793	500	COc1cnc(C(=O)Nc2cccc([C@@]3(C(F)F)N=C(N)O[C@@H]4C[C@@H]43)c2)cn1 [Example 438, N-(3-((1R,5S,6R)-3-amino-5-(difluoromethyl)-2-oxa-4-azabicyclo[4.1.0]hept-3-en-5-yl)phenyl)-5-methoxypyrazine-2-carboxamide]
> 15.6	250	> 40000	NC1=N[C@@](c2cc(-c3nnc(-c4ccc(F)cc4)[nH]3)ccc2F)(C(F)F)[C@H]2C[C@H]2O1 [Example 440, (1R,5S,6R)-5-(difluoromethyl)-5-(2-fluoro-5-(5-(4-fluorophenyl)-4H-1,2,4-triazol-3-yl)phenyl)-2-oxa-4-azabicyclo[4.1.0]hept-3-en-3-amine]
0.0159	444	25.2	NC1=N[C@](CF)(c2cc(NC(=O)c3ncc(Cl)cc3CF)ccc2Cl)[C@H]2C[C@H]2O1 [Example 441, N-(3-((1R,5S,6R)-3-amino-5-(fluoromethyl)-2-oxa-4-azabicyclo[4.1.0]hept-3-en-5-yl)-4-chlorophenyl)-5-chloro-3-(fluoromethyl) picolinamide]

The remaining lines, values behind:

Structure (SMILES)	IC50 (BACE) [µM]	IC50 (Cathepsin D (Cat D)) [µM]	IC50 [1] [nM]
COc1cc(C#N)cnc1C(=O)Nc1cc(C)c(F)c([C@@]2(C(F)F)N=C(N)O[C@@H]3C[C@@H]32)c1 [Example 399, N-(3-((1R,5S,6R)-3-amino-5-(difluoromethyl)-2-oxa-4-azabicyclo[4.1.0]hept-3-en-5-yl)-4-fluoro-5-methylphenyl)-5-cyano-3-methoxypicolinamide]	0.0208	1090	70.6
NC1=N[C@@](c2cc(NC(=O)c3ccc(C#CC4CC4)cn3)ccc2F)(C(F)F)[C@H]2C[C@H]2O1 [Example 405, N-(3-((1R,5S,6R)-3-amino-5-(difluoromethyl)-2-oxa-4-azabicyclo[4.1.0]hept-3-en-5-yl)-4-fluorophenyl)-5-(cyclopropylethynyl)picolinamide]	0.215	399	23.7
NC1=N[C@@](c2cc(NC(=O)c3cnc(C#CC4CC4)cn3)ccc2F)(C(F)F)[C@H]2C[C@H]2O1 [Example 407, N-(3-((1R,5S,6R)-3-amino-5-(difluoromethyl)-2-oxa-4-azabicyclo[4.1.0]hept-3-en-5-yl)-4-fluorophenyl)-5-(cyclopropylethynyl)pyrazine-2-carboxamide]	0.301	170	29.6
NC1=N[C@@](c2cc(NC(=O)c3cnc(OCC#CC4CC4)cn3)ccc2F)(C(F)F)[C@H]2C[C@H]2O1 [Example 411, N-(3-((1R,5S,6R)-3-amino-5-(difluoromethyl)-2-oxa-4-azabicyclo[4.1.0]hept-3-en-5-yl)-4-fluorophenyl)-5-((3-cyclopropylprop-2-yn-1-yl)oxy)pyrazine-2-carboxamide]	0.112	360	7.6
NC1=N[C@@](c2cc(NC(=O)c3cnc(OCC4CCOCC4)cn3)ccc2F)(C(F)F)[C@H]2C[C@H]2O1 [Example 412, N-(3-((1R,5S,6R)-3-amino-5-(difluoromethyl)-2-oxa-4-azabicyclo[4.1.0]hept-3-en-5-yl)-4-fluorophenyl)-5-((tetrahydro-2H-pyran-4-yl)methoxy)pyrazine-2-carboxamide]	0.984	640	128
NC1=N[C@@](c2cc(NC(=O)c3cnc(OCC4CCCCC4)cn3)ccc2F)(C(F)F)[C@H]2C[C@H]2O1 [Example 416, N-(3-((1R,5S,6R)-3-amino-5-(difluoromethyl)-2-oxa-4-azabicyclo[4.1.0]hept-3-en-5-yl)-4-fluorophenyl)-5-(cyclohexylmethoxy)pyrazine-2-carboxamide]	2.5	228	12.1
CCOc1cnc(C(=O)Nc2ccc(F)c([C@@]3(C(F)F)N=C(N)O[C@@H]4C[C@@H]43)c2)cn1 [Example 417, N-(3-((1R,5S,6R)-3-amino-5-(difluoromethyl)-2-oxa-4-azabicyclo[4.1.0]hept-3-en-5-yl)-4-fluorophenyl)-5-ethoxypyrazine-2-carboxamide]	0.0876	1470	115
NC1=N[C@@](c2cc(NS(=O)(=O)c3ccc(Cl)cn3)ccc2F)(C(F)F)[C@H]2C[C@H]2O1 [Example 421, N-(3-((1R,5S,6R)-3-amino-5-(difluoromethyl)-2-oxa-4-azabicyclo[4.1.0]hept-3-en-5-yl)-4-fluorophenyl)-5-chloropyridine-2-sulfonamide]	> 15.6	224	14200
COC[C@H](C)NC(=O)c1ccc(F)c([C@@]2(C(F)F)N=C(N)O[C@@H]3C[C@@H]32)c1 [Example 428, 3-((1R,5S,6R)-3-Amino-5-(difluoromethyl)-2-oxa-4-azabicyclo[4.1.0]hept-3-en-5-yl)-4-fluoro-N—((S)-1-methoxypropan-2-yl)benzamide]	> 15.6	1520	> 40000
NC1=N[C@@](c2cc(N3Cc4cc(Cl)cnc4C3=O)ccc2F)(C(F)F)[C@H]2C[C@H]2O1 [Example 437, 6-(3-((1R,5S,6R)-3-amino-5-(difluoromethyl)-2-oxa-4-azabicyclo[4.1.0]hept-3-en-5-yl)-4-fluorophenyl)-3-chloro-5H-pyrrolo[3,4-b]pyridin-7(6H)-one]	0.384	659	2180
NC1=N[C@](CF)(c2cc(NC(=O)c3ncc(Cl)cc3F)ccc2Cl)[C@H]2C[C@H]2O1 [Example 442, N-(3-((1R,5S,6R)-3-amino-5-(fluoromethyl)-2-oxa-4-azabicyclo[4.1.0]hept-3-en-5-yl)-4-chlorophenyl)-5-chloro-3-fluoropicolinamide]	0.0134	1140	54.4

Reference: patent US9085576B2 (AMGEN INC., priority 2013, dated 2015)
